Several values for one entry are separate records, joined by “and”; a condition that tells them apart may be missing. Equal entries are not always repeated. Where two headings read alike, the source gives them in different places.
Assays:
[1] = biological target: T1, AChE (Homo sapiens, UniProt P22303); assay: biochemical; details: for SI(AChE/BChE): selectivity index = IC50 (AChE)/IC50 (BChE)
Protocol: (§1) Butyrylthiocholine iodide and acetylthiocholine were utilized as substrates in BChE and AChE assays, respectively, where DTNB was served as indicator. All compounds were dissolved in MeOH. […] Blank assays were performed by replacing the enzyme (20 μL) with buffer and their absorbances were recorded for correction of the spontaneous lysis of the indicator or inherent color of the inhibitor.
Selectivity index (SI) for acetyl and butyryl cholinesterases was calculated as follow:SI(AChE/BChE) = IC50 (AChE)/IC50 (BChE)SI(BChE/AChE) = […]

[2] = biological target: T2, BChE (Homo sapiens, UniProt P06276); assay: biochemical; details: for SI(BChE/AChE): selectivity index BChE/AChE
Protocol: as §1, with “inhibitor. […]” for “inhibitor.”

[3] = system: RPE1 (human immortalized retinal pigment epithelial cell line); assay: Antiproliferative/cytotoxicity MTT assay on normal cell line; assay type: cell-based; details: RPE-1, 72 h incubation, tested at 100, 50, 25 and 12.5 μM, read-out: IC50 against RPE1
From the text: Antiproliferative properties of the synthesized agents 8a–l were considered against RPE1 (human immortalized retinal pigment epithelial cell line) normal cell line utilizing the standard MTT (tetrazolium salt) technique.[37]
The synthesized agents 8a–l were screened against RPE1 (human immortalized retinal pigment epithelial cell line) normal cell line to investigate their cytotoxicity by the standard mitochondrial dependent reduction of yellow MTT [3-(4,5-dimethylthiazol-2-yl)-2,5-diphenyl-tetrazolium bromide] to purple formazan technique.[37] Cells were suspended in DMEM in addition to 1% antibiotic–antimycotic mixture (10 000 μg mL^−1 potassium penicillin, 10 000 μg mL^−1 streptomycin sulfate and 25 μg mL^−1 amphotericin B), 10% fetal bovine serum and 1% L-glutamine at 37 °C, under 5% CO2 and 95% humidity. Cells were seeded at concentration of 30 000 cells per well in fresh complete growth medium in 96-well tissue culture microtiter plates for 24 h. […] 0.5% DMSO was used as negative control. Triplicate wells were prepared for each individual dose. After 72 h of incubation, medium was aspirated, 40 μl MTT salt (2.5 mg mL^−1) were added to each well and incubated for further 4 h at 37 °C. To stop the reaction and dissolve the formed crystals, 150 μL of 10% sodium dodecyl sulfate (SDS) in deionized water were added to each well and incubated overnight at 37 °C.
Data were collected as mean values for experiments performed in triplicates for each individual dose which had been measured by MTT assay. […] The percentage of cell survival was calculated according to the following equation. [drawing 1]
Statistical calculations for determination of the mean and standard error values were determined by SPSS 16 software.

[4] = system: mice; assay: Acute toxicological bio-assay in mice; assay type: in vivo; details: intraperitoneal, 50, 100 and 250 mg kg−1, recorded 24 h post-administration
Protocol: Albino mice weighing 20–25 g were divided into 4 groups of 6 mice each. Administrations of the tested compounds dissolved in saline solution (0.9%) by the aid of few drops of Tween 80 were given intraperitoneally in 50, 100 and 250 mg kg^−1 (mice body weight). The control group was given a saline solution only with few drops of Tween 80. The toxic symptoms and mortality rates were recorded 24 h post-administration in each group.

[5] = biological target: T1, AChE; assay: 2D-QSAR (BMLR, CODESSA-Pro) model, AChE inhibitors; details: observed minus estimated IC50
From the text: (§2) The cholinesterase properties observed were undertaken by CODESSA-Pro software accessible for optimizing 2D-QSAR models.[39–41] This is useful for well understanding the bio-observations and identifying the parameters necessary for bio-potency. Three descriptor QSAR models were developed due to the AChE and BChE inhibitory properties of the synthesized dispiro-compounds 8a–l (ESI Tables S4–S9, Fig. S40 and S41, details of the QSAR descriptors are also mentioned in the ESI). ^† […]
(§3) Goodness of the QSAR models was supported by the comparative values of the correlation coefficient (R^2) with their cross validation of leave one-out (R^2cvOO) and leave many-out (R^2cvMO) [R^2 = 0.923, 0.979; R^2cvOO = 0.882, 0.936; R^2cvMO = 0.904, 0.956, for AChE and BChE models, respectively]. Standard deviation (s^2) and Fisher criteria (F) values of the models also support their goodness (s^2 = 0.026, 0.005; […]. Additionally, the correlations of the observed and predicted values “specially the high potent synthesized compounds” add good support for the attained models. […]
(§4) Molecular modeling studies
(§5) The synthesized dispiro[indoline-3,2'-pyrrolidine-3',3''-pyrrolidines] 8a‒l […]
(§6) 2D-QSAR modeling by CODESSA-Pro (comprehensive descriptors for structural and statistical analysis) software. Geometry of the compounds was initially optimized by AM1 technique using hyperChem 8.0 then, uploaded to CODESSA-Pro for final geometrical structure optimization by MOPAC.10‒12 CODESSA-Pro calculated 656 molecular descriptors (constitutional, topological, geometrical, charge-related, semi-empirical, thermodynamical, molecular-type, atomic-type and bond-type descriptors) for […]
(§7) the exported bio-active agents. Mathematical transformation of the experimental values […]
(§8) QSAR model. The best multi-linear regression (BMLR) technique was utilized which is a stepwise search for the best n-parameter regression equations (where n stands for the number of descriptors used), based on the highest R2 (squared correlation coefficient), R2cvOO (squared cross-validation “leave one-out, LOO” coefficient), R2cvMO (squared cross-validation “leave many-out up to 20% of the training set, LMO” coefficient), F (Fisher statistical significance criteria) values, and s2 (standard deviation). The QSAR up to 3-descriptor model describing the biological activity of the bio-active agents were generated (obeying the thumb rule of 4:1 which is the ratio between the data points and the number of QSAR descriptor).
(§9) Minimum (>0.1) bond order for atom C is an atomic type descriptor with the […]
(§10) why the higher descriptor value, the lower AChE inhibitory efficacy of the tested agent as […]
(§11) 2/SQRT(TMSA) (MOPAC PC) is a charge related descriptor with relatively high […]
(§12) . Compounds with high descriptor value predicted low AChE
(§13) 0.11715). HDCA2 (area weighed surface charge of hydrogen bonding donor atoms) can be calculated by equ. (1). 13
(§14) HDCA2 = D … .DtotH‒donor (1)
(§15) Where, standsSD for the solvent accessible surface area of H-bonding donor H atoms (selected by threshold charge), is the partialqD charge on H-bonding donor H atoms (selected by threshold charge) and is the totalStot solvent accessible molecular surface […]
(§16) Square root of surface area for atom C is also a charge related descriptor with […]
(§17) . For this reason, the higher descriptor value of […]

[6] = biological target: T2, BChE; assay: 2D-QSAR (BMLR, CODESSA-Pro) model, BChE inhibitors; details: observed minus estimated IC50
From the text: as §2, §3, §4, §5, §6, §7, §8, §9, §10, §11, §12, §13, §14, §15, §16, §17
partial positively and negatively charged surface area can be calculated by equs. (2) and […]
PPSA3 = A … .. (2)A∈{δA>0}
PNSA3 = A … ..A∈{δA>0} (3)
Where, is the positively/negativelySA charged solvent accessible atomic surface area and qA is the atomic partial charge.
ZX Shadow/ZX rectangle is a geometrical descriptor with the highest coefficient […]
. The higher descriptor value of […]
compounds 8c and 8e, respectively). Relative shadow areas of a molecule can be determined by equ. (4). 13
Where, C is contour of the projection of the molecule on the plane defined by two principal axes of the molecule (k = XY, XZ or YZ plane), , , = X • ν –x or yρ –y or zS(k) […]
Maximum atomic state energy for atom O is an atomic type descriptor. […]

[7] = 10 min incubation at 25 °C, read at 405 nm, read-out: IC50 of AChE (μM) ± SD
[8] = log transformation of the observed IC50, read-out: Observed log(IC50, μM), AChE (converted)
[9] = 10 min incubation at 25 °C, read at 405 nm, read-out: IC50 of BChE (μM) ± SD
[10] = log transformation of the observed IC50, read-out: Observed log(IC50, μM), BChE (converted)

T2 sequence (P06276 29-602): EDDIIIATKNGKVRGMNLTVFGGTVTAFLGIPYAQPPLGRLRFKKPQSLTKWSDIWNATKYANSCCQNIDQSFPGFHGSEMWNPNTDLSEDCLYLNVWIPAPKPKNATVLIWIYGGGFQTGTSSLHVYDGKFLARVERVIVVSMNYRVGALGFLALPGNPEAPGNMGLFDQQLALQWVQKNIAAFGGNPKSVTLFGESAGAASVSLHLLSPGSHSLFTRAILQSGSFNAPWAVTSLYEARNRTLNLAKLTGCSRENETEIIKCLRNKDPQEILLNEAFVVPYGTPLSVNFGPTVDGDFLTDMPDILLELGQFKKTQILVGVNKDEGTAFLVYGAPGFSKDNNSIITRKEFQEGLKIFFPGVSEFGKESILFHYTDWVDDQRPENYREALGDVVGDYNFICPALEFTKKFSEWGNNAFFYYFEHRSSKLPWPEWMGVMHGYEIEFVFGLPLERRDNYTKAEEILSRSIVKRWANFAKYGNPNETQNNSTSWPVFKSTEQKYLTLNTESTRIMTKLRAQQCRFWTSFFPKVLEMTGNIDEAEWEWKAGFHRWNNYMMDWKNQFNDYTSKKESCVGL
T1 sequence (P22303 32-614): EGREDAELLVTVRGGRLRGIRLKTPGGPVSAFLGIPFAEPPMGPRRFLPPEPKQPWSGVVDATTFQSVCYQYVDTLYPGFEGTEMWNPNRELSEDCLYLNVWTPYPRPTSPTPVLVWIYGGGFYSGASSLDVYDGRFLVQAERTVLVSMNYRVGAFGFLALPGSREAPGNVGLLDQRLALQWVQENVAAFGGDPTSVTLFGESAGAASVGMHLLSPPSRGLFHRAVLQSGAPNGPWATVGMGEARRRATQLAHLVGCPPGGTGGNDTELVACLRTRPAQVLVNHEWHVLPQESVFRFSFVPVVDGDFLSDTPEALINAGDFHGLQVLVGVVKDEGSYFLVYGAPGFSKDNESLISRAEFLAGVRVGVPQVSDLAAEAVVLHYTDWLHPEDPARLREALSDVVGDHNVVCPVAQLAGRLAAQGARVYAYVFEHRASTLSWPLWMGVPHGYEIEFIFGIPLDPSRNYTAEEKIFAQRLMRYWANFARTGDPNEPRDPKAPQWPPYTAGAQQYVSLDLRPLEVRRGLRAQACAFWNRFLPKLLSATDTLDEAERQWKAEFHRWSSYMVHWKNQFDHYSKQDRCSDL

| SMILES | IC50 [1, 7] | IC50 [1, 8] [µM] | SI(AChE/BChE) [1] | IC50 [2, 9] | IC50 [2, 10] [µM] | SI(BChE/AChE) [2] | IC50 [3] [µM] | Mortality rates or toxicological symptoms [4] | Error (difference between observed and estimated property values), AChE BMLR-QSAR model [5] [µM] | Error (difference between observed and estimated property values), BChE BMLR-QSAR model [6] [µM] |
| --- | --- | --- | --- | --- | --- | --- | --- | --- | --- | --- |
| COc1ccc2c(c1)C1(C(=O)N2)N(C)CC(c2ccc(Cl)cc2)C12CC(=O)N(c1ccccc1)C2=O (stereo not drawn) [Compound 8e, 4′-(4-Chlorophenyl)-5-methoxy-1′-methyl-1′′-phenyldispiro[indoline-3,2′-pyrrolidine-3′,3′′-pyrrolidine]-2,2′′,5′′-trione] | 3.4 µM and 3.35 µM | 3.35 | 0.60 | 5.6 µM and 5.63 µM | 5.63 | 1.68 | > 100 | None of the tested agents reveal any mortality rates or toxicological symptoms | 0.10 | 0.86 |
| COc1ccc(C2CN(C)C3(C(=O)Nc4ccc(OC)cc43)C23CC(=O)N(c2ccccc2)C3=O)cc1 (stereo not drawn) [Compound 8g, 5-Methoxy-4′-(4-methoxyphenyl)-1′-methyl-1′′-phenyldispiro[indoline-3,2′-pyrrolidine-3′,3′′-pyrrolidine]-2,2′′,5′′-trione] | 3.2 µM and 3.15 µM | 3.15 | 0.66 | 4.7 µM and 4.74 µM | 4.74 | 1.50 | > 100 | None of the tested agents reveal any mortality rates or toxicological symptoms | -1.78 | -0.65 |
| CN1CC(c2ccccc2)C2(CC(=O)N(c3ccc(Cl)cc3)C2=O)C12C(=O)Nc1ccccc12 (stereo not drawn) [Compound 8h, 1′′-(4-Chlorophenyl)-1′-methyl-4′-phenyldispiro[indoline-3,2′-pyrrolidine-3′,3′′-pyrrolidine]-2,2′′,5′′-trione] | 6.3 µM and 6.27 µM | 6.27 | 1.17 | 5.3 µM and 5.34 µM | 5.34 | 0.85 | > 100 | None of the tested agents reveal any mortality rates or toxicological symptoms | -1.03 | -0.81 |
| COc1ccc2c(c1)C1(C(=O)N2)N(C)CC(c2ccc(Cl)cc2)C12CC(=O)N(c1ccc(Cl)cc1)C2=O (stereo not drawn) [Compound 8l, 1′′,4′-Bis(4-chlorophenyl)-5-methoxy-1′-methyldispiro[indoline-3,2′-pyrrolidine-3′,3′′-pyrrolidine]-2,2′′,5′′-trione] | 22 µM | 22 | 0.62 | 35.54 ± 0.33 µM | 35.5 | 1.62 | > 100 |  | -7.93 | -0.71 |

Source: article PMC9054546, “Synthesis and molecular modeling studies of cholinesterase inhibitor dispiro[indoline-3,2′-pyrrolidine-3′,3′′-pyrrolidines]” (RSC Advances, 2020)
